Source: patent US9617262B2, “Antibacterial cyclopental[C]pyrrole substituted 3,4-dihydro-1H-[1,8]naphthyridinones” (Janssen Sciences Ireland UC, priority 2011, dated 2017)
Converted amounts (≈) assume the structure as drawn.

Legend:
[1] = system: Staphylococcus aureus ATCC 29213; assay: Antibacterial susceptibility testing: IC90 determination (STA); assay type: cell-based; details: STA ATCC 29213, 90% inhibitory concentration for bacterial growth
Description: (§1) The following bacteria were used: Staphylococcus aureus ATCC 29213, methicillin-resistant Staphylococcus aureus (MRSA) ATCC 700788 and Escherichia coli ATCC 35218. The bacteria used in this study were grown overnight in flasks containing 100 ml Mueller-Hinton broth (Difco cat. nr. 0757-17) in sterile de-ionized water, with shaking, at 37° C. Stocks were store at −70° C. until use.
(§2) Bacteria were incubated on a tryptic soy agar plate containing 5% sheep blood (Becton Dickinson cat. nr. 254053) for 18-24 hours at 35° C. in aerobic conditions (first passage). For the second passage, fresh Mueller-Hinton broth is inoculated with 5-10 colonies and grown overnight at 35° C. until turbidity (reaching log-phase) in aerobic conditions is reached. The bacterial suspension is then adjusted to 0.5 McFarland density and further diluted 1:100 in Mueller Hinton broth medium. This is used as inoculum.
(§3) MIC assays were performed by the broth microdilution method in a 96-well format (flat-bottom microtitre plates) with a final volume of 0.1 ml Mueller Hinton broth containing two-fold serial dilutions of compounds and inoculated with 5×10^5 CFU/ml of bacteria (standard inoculum size according to CLSI guidelines). Inhibitors are typically varied over the range of 63 to 0.49 μM. The final DMSO concentration in the assay was 1.25% (maximum tolerable DMSO concentration=6%). In the assays where the effect of human serum on the activity of the compounds against S. aureus was tested, human serum was added at a final concentration of 10%. The plates were incubated at 35° C. for 16-20 hours. At the end of incubation the bacterial growth was quantified fluorometrically. For this, resazurin was added to all wells and the plates were re-incubated. The incubation time is dependent on the type of bacteria. A change in color from blue to pink indicated the growth of bacteria. The fluorescence was read in computer-controlled fluorometer (Fluoroskan Ascent FL, Labsystems) at an excitation wavelength 540 nm and an emission wavelength of 590 nm. The % growth inhibition achieved by the compounds was calculated according to standard methods. The IC90 (expressed in μg/ml) was defined as the 90% inhibitory concentration for bacterial growth. A panel of reference compounds were simultaneously tested for QC approval.

S. aureus = assay: Antibacterial susceptibility testing: IC90 determination with 10% human serum (STA + 10% HS); assay type: cell-based, Staphylococcus aureus; details: human serum at a final concentration of 10%
Description: as §1, §2, §3
The results are depicted in the table D2 below (STA+10% HS).

Human HelaM cells = assay: Cytotoxicity MTT assay (TOX HELAM); assay type: cell-based; details: 72 hours
Description: Cytotoxicity of the compounds was evaluated using the MTT assay. Human HelaM cells grown in 96-well plates were exposed to serial dilutions of the tested compounds (final volume of 0.2 ml) and incubated for 72 hours at 37° C. and 5% CO2. Inhibitors are typically varied over the range of 25 to 0.8 μM. The final DMSO concentration in the assay is 0.5%. MTT (3-(4,5-Dimethylthiazol-2-yl)-2,5-diphenyltetrazolium bromide, a tetrazole) was added and reduced to purple formazan only in living cells. Solubilization of the formazan crystals was achieved by adding 100 μl 2-propanol. Cell viability was determined by measuring the absorbance of the reduced formazan, giving a purple color, at 540 nm and 690 nm. The absorbance measured at 690 nm was automatically subtracted from the absorbance at 540 nm, to eliminate the effects of non-specific absorption. The percent cytotoxicity achieved by the compounds was calculated according to standard methods. Cytotoxicity is reported as CC50, the concentration that causes a 50% reduction in cell viability.
The results are depicted in the table D2 below (TOX HELAM).

[2] = system: Escherichia coli ATCC 25922; reference strain; assay: Antimicrobial spectrum, broth microdilution MIC; assay type: cell-based; details: E. coli ATCC 25922
Description: (§4) Minimum Inhibitory Concentrations (MICs) were determined in accordance with the Clinical and Laboratory Standards Institute (CLSI) methodology against aerobic bacteria (CLSI M07-A8) (see Clinical and Laboratory Standards Institute. 2009. Methods for dilution antimicrobial susceptibility tests for bacteria that grow aerobically. CLSI document M07-A8, Vol. 29, No. 2.) by the broth microdilution method with cation-adjusted Mueller-Hinton broth (CA-MHB) medium for the majority of organisms, except for Haemophilus influenza, where Haemophilis test medium (HTM) broth was used. Descriptions of the individual organisms can be found in the table. Where possible, ATCC standard strains were tested.
(§5) The inoculum density for the susceptibility testing was standardized to give a final inoculum of approximately 5×10^5 CFU/mL.
(§6) Stock solutions of the compounds were prepared in DMSO at concentrations of 1 mg/mL. Linezolid was prepared in DMSO at a concentration of 2 mg/mL. Stock solutions of all compounds were diluted into CA-MHB to give a range of two-fold dilutions, depending upon the sensitivity of the organism being tested.

[3] = system: Escherichia coli Tol C mutant; assay: Antimicrobial spectrum, broth microdilution MIC; assay type: cell-based; details: E. coli tolC mutant
Description: as §4, §5, §6

[4] = system: Haemophilus influenzae ATCC 49247; reference strain; assay: Antimicrobial spectrum, broth microdilution MIC; assay type: cell-based; details: H. influenza ATCC 49247
Description: as §4, §5, §6

[5] = system: Moraxella catarrhalis ATCC 8176; b-lactamase negative; assay: Antimicrobial spectrum, broth microdilution MIC; assay type: cell-based; details: M. catarrhalis ATCC 8176
Description: as §4, §5, §6

[6] = system: Staphylococcus aureus ATCC 29213; reference strain MSSA; assay: Antimicrobial spectrum, broth microdilution MIC; assay type: cell-based; details: S. aureus ATCC 29213
Description: as §4, §5, §6

[7] = system: Staphylococcus aureus ATCC 43300; reference strain MRSA; assay: Antimicrobial spectrum, broth microdilution MIC; assay type: cell-based; details: S. aureus ATCC 43300
Description: as §4, §5, §6

[8] = system: Staphylococcus aureus NRS119; LZD-R; assay: Antimicrobial spectrum, broth microdilution MIC; assay type: cell-based; details: S. aureus NRS119
Description: as §4, §5, §6

[9] = system: Staphylococcus aureus NRS120; LZD-R; assay: Antimicrobial spectrum, broth microdilution MIC; assay type: cell-based; details: S. aureus NRS120
Description: as §4, §5, §6

[10] = system: Staphylococcus aureus NRS121; LZD-R; assay: Antimicrobial spectrum, broth microdilution MIC; assay type: cell-based; details: S. aureus NRS121
Description: as §4, §5, §6

[11] = In vivo pharmacokinetic and oral bioavailability; details: male Swiss mice
Description: The in vivo pharmacokinetics and oral bioavailability of the compound of the examples was/is investigated in male Swiss mice (fed) following single intravenous (i.v.) bolus and oral (p.o.) administration. For the i.v. and p.o. solution formulations, the compound was/is dissolved in a 20% HP-β-CD solution. The pH of the formulations was/is around pH 4. All i.v. formulations were isotonic.

SMILES: O=C1CCc2cc(/C=C/C(=O)N3C[C@@H]4CC(c5ccccc5)=C[C@@H]4C3)cnc2N1 (single isomer, unassigned) [compound 14]
- STA (361.159) IC90 [1]: 0.19 µg/mL
- STA + 10% HS (361.169) IC90 (S. aureus): 0.19 µg/mL
- TOX HELAM (222.125) CC50 (Human HelaM cells): >9.683 µg/mL
- MIC90 [2]: 4 µg/mL (≈ 10.4 µM)
- MIC90 [3]: 0.25 µg/mL (≈ 0.649 µM)
- MIC90 [4]: 0.25 µg/mL (≈ 0.649 µM)
- MIC90 [5]: 0.015 µg/mL (≈ 0.0389 µM)
- MIC90 [6]: 0.03 µg/mL (≈ 0.0778 µM)
- MIC90 [7]: 0.03 µg/mL (≈ 0.0778 µM)
- MIC90 [8]: 0.03 µg/mL (≈ 0.0778 µM)
- MIC90 [9]: 0.03 µg/mL (≈ 0.0778 µM)
- MIC90 [10]: 0.03 µg/mL (≈ 0.0778 µM)
- AUC0-inf ([11]; i.v. 2.5 mg/kg): 7464 ng·h/mL
- Half life (t1/2) ([11]; i.v. 2.5 mg/kg): 2.7 h
- Plasma clearance Cl ([11]; i.v. 2.5 mg/kg): 5.5 mL/min/kg
- Vdz ([11]; i.v. 2.5 mg/kg): 1.3 L/kg
- C0 ([11]; i.v. 2.5 mg/kg, 20% HP-β-CD solution): 2929 ng/mL
- Oral bioavailability ([11]; p.o. 10 mg/kg vs i.v. 2.5 mg/kg): 72%
- AUC0-inf ([11]; p.o. 10 mg/kg): 21394 ng·h/mL
- Cmax ([11]; p.o. 10 mg/kg): 2950 ng/mL
- Half life (t1/2) ([11]; p.o. 10 mg/kg): 3.2 h
- Tmax ([11]; p.o. 10 mg/kg): 2.0 h
